Assay results taken from PubChem BioAssay (NCI).
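Growth conditions: 96-well plates. Treatment: test compound, 48 hours, 5 concentrations. Analysis: linear interpolation between bracketing concentrations; unreached endpoints set to highest concentration. At the TGI there is no net growth.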

Experiments:
Assay in all cases: inhibition of tumour cell growth, NCI panel, 48 h
[1] = test system: HCT-116 colon
[2] = test system: LXFL 529 NSCLC
[3] = test system: A498 renal
[4] = test system: SF-539 CNS
[5] = test system: KM12 colon
[6] = test system: IGROV1 ovarian
[7] = test system: SK-MEL-5 melanoma
[8] = test system: SK-MEL-28 melanoma
[9] = test system: A549 NSCLC
[10] = test system: SW-620 colon
[11] = test system: OVCAR-5 ovarian
[12] = test system: SN12C renal
[13] = test system: HOP-18 NSCLC
[14] = test system: M19-MEL melanoma
[15] = test system: SK-OV-3 ovarian
[16] = test system: HCC-2998 colon
[17] = test system: TK-10 renal
[18] = test system: OVCAR-8 ovarian
[19] = test system: K-562 leukemia
[20] = test system: NCI-H522 lung
[21] = test system: M14 melanoma
[22] = test system: CAKI-1 renal
[23] = test system: HCT-15 colon
[24] = test system: UACC-257 melanoma
[25] = test system: DLD-1 colon
[26] = test system: HOP-62 NSCLC
[27] = test system: U251 CNS
[28] = test system: UO-31 renal
[29] = test system: SF-295 CNS
[30] = test system: OVCAR-4 ovarian
[31] = test system: SNB-19 CNS
[32] = test system: MALME-3M melanoma
[33] = test system: HT29 colon
[34] = test system: UACC-62 melanoma
[35] = test system: NCI-H226 lung
[36] = test system: OVCAR-3 ovarian
[37] = test system: KM20L2 colon
[38] = test system: LOX IMVI melanoma
[39] = test system: SF-268 CNS
[40] = test system: HOP-92 NSCLC
[41] = test system: RPMI-8226 leukemia
[42] = test system: COLO 205 colon
[43] = test system: NCI-H460 lung
[44] = test system: EKVX NSCLC
[45] = test system: CCRF-CEM leukemia
[46] = test system: DMS 273 small cell lung
[47] = test system: 786-0 renal
[48] = test system: DMS 114 small cell lung
[49] = test system: ACHN renal
[50] = test system: NCI-H23 lung
[51] = test system: RXF 393 renal
[52] = test system: RXF-631 renal
[53] = test system: HL-60(TB) leukemia
[54] = test system: MOLT-4 leukemia
[55] = test system: SR leukemia
[56] = test system: SNB-75 CNS
[57] = test system: SK-MEL-2 melanoma
[58] = test system: SNB-78 CNS

Measured: TGI

O=C(C=P(c1ccccc1)(c1ccccc1)c1ccccc1)CC(=S)CC(=O)C=P(c1ccccc1)(c1ccccc1)c1ccccc1
17.9 µM: [12] | [25]
20.1 µM: [2]
50.8 µM: [17]
53.6 µM: [49]
9.04 µM: [13]
46.7 µM: [43]
29.3 µM: [23]
13 µM: [24]
80 µM: [11]
20.5 µM: [21]
12.5 µM: [36]
22.9 µM: [18]
25.2 µM: [51]
3.71 µM: [42]
16.4 µM: [50]
10.1 µM: [46]
47.1 µM: [34]
98.9 µM: [28]
8.26 µM: [7]
25 µM: [4]
24.1 µM: [35]
24.8 µM: [26]
6.09 µM: [40]
15.7 µM: [20]
14.7 µM: [16]
11.7 µM: [27]
14.5 µM: [29]
20.6 µM: [3]
18.8 µM: [5]
27 µM: [48]
not listed: [53] | [54] | [55] | [56] | [57] | [58]
> 100 µM: all other assays above

COc1cc(C(C)c2cc3c(cc2OCCN)OCO3)cc(OC)c1OC (stereo not given)
95.7 µM: [51]
46.8 µM: [56]
80.8 µM: [37]
47 µM: [53]
not listed: [7] | [13] | [15] | [40] | [58]
> 100 µM: all other assays above

CC(C)CC(N=Cc1nc(-c2ccccc2)oc1O)C(=O)O (stereo not given)
not listed: [2] | [13] | [40]
> 100 µM: all other assays above
